Test results reported in US20100119595A1, “Monounsaturated fatty acids and perhydrocyclopentanophenanthrene nucleus combination molecules, and their precursors, and the use of all of these as weight-loss agents” (priority 2001, published 2010).
Marks after values point to notes of the source that are not given here.

Columns and labels:
[1] = Human study of 2 hydroxyestrone oleate (Example 11); assay type: in vivo; conditions: humans, oral capsule, 0.75 or 0.375 micromoles/kg
Description: In this random, double-blind, placebo controlled study, subjects are selected to one of three groups and take a capsule orally every morning containing one of the following: a) sunflower oil (placebo), b) 2 hydroxyestrone oleate dissolved in sunflower oil at a dose of 0.75 micromoles/kg, or c) 2 hydroxyestrone oleate dissolved in sunflower oil at a dose of 0.375 micromoles/kg. […]
Different tests are performed at least five different times during each study, namely at the screening of potential participants, at the beginning of the study, weekly during the trials, at the end of the first 4 week period and at the end of the second 4 week treatment period. • 1) SCREENING: Subjects are screened to exclude hypothyroidism, pregnancy, and heart disease. […] Subjects selected to participate in the studies have the following initial measurements: WEIGHT, WAIST to HIP RATIO, HEIGHT, BMI (calculated), BODY FAT % & TOTAL BODY FAT (via bioelectrical impedance method). […]
Ad libitum diets are followed, and food intake and appetite are assessed daily by the patient with an appropriate questionnaire and booklet. […]

[2] = Rabbit 10-day oral study: body weight and food consumed (Example 1); conditions: for FINAL WT.: one rabbit; for WT. Δ w/ Rx 10 days: control +0.14
Description: During the first 3 weeks, rabbits were only weighed and allowed to eat. On the fourth week, all rabbits were given 0.05 cc dose of peanut oil.
Five New Zealand white rabbits were obtained and caged in their natural environment (outside) and fed a cafeteria, ad libitum diet of rabbit chow. […] The appropriate weights of OE or EE were diluted in peanut oil to provide concentrations as follows: 1) OE, 2 mg/0.05 cc; 2) EE, 1 mg/0.05 cc; 3) 0.33 mg/0.05 cc; 4) EE, 0.1mg/0.05 cc, 5) EE, 0.03 mg/0.05 cc
For the initial three weeks, the rabbits were given no medicine or oil. Body weight and food consumed were measured daily; establishing a daily average for food consumed and weight change.
Rabbits received the assigned dose for 10 consecutive days. Rabbit weight (kg) and food eaten (grams) were determined daily.

[3] = EE 1 mg/d vs OE 2 mg/d, oral, rabbits

| Compound | appetite [1] | weight loss, loss of body fat, and/or decrease of body fat% [1] | FINAL WT. ([2]; EE 0.03 mg/d oral in peanut oil, 10 days, initial wt 4.00 kg) | WT. Δ w/ Rx 10 days ([2]; EE 0.03 mg/d oral, 10 days, pre-Rx 10 day avg. +0.125) | FOOD/DAY AVG. w/ Rx ([2]; EE 0.03 mg/d oral, 10 days, pre-Rx avg 163.6) | FINAL WT. ([2]; EE 0.2 mg/d oral in peanut oil, 10 days, initial wt 3.50 kg) | FOOD/DAY AVG. w/ Rx ([2]; EE 0.2 mg/d oral, 10 days, pre-Rx avg 151.1) | FINAL WT. ([2]; EE 0.33 mg/d oral in peanut oil, 10 days, initial wt 4.09 kg) | WT. Δ w/ Rx 10 days ([2]; EE 0.33 mg/d oral, 10 days, pre-Rx 10 day avg. +0.139) | FOOD/DAY AVG. w/ Rx ([2]; EE 0.33 mg/d oral, 10 days, pre-Rx avg 151.6) | FINAL WT. ([2]; EE 1 mg/d oral in peanut oil, 10 days, initial wt 3.73 kg) | WT. Δ w/ Rx 10 days ([2]; EE 1 mg/d oral, 10 days, pre-Rx 10 day avg. +0.129) | FOOD/DAY AVG. w/ Rx ([2]; EE 1 mg/d oral, 10 days, pre-Rx avg 138.3) | amount of food eaten relative to the OE rabbit [2, 3] | weight loss relative to OE over a 10-day period [2, 3] | weight gained compared with the Control rabbit ([2]; EE at 1/10 the dose of OE (0.2 mg/d), 10 days) | weight gained compared with the control ([2]; EE at lowest dose (0.03 mg/d), 10 days) | weight loss less than that resulting from OE ([2]; EE at ⅙ the dose of OE (0.33 mg/d vs 2 mg/d), 10 days) |
| --- | --- | --- | --- | --- | --- | --- | --- | --- | --- | --- | --- | --- | --- | --- | --- | --- | --- | --- |
| CCCCCCCC/C=C\CCCCCCCC(=O)Oc1cc2c(cc1O)[C@H]1CC[C@]3(C)C(=O)CC[C@H]3[C@@H]1CC2 [2HOE, 2 hydroxyestrone oleate] | reduces appetite | produces weight loss |  |  |  |  |  |  |  |  |  |  |  |  |  |  |  |  |
| CCCCCCCC/C=C\CCCCCCCCCC(=O)Oc1ccc2c(c1)CC[C@@H]1[C@@H]2CC[C@]2(C)C(=O)CC[C@@H]12 [EE, estrone eicosenoate] |  |  | 4.17* kg | +0.17 kg | 158.5 grams | 3.56 kg | 131.0 grams | 4.01 kg | −0.08 kg | 150.4 grams | 3.37 kg | −0.36 kg | 31.9 grams | approximately ⅓ | more than three times the weight loss | less than half the weight gained by the Control rabbit | gained more weight than even the control | 20% |
